Patent US20260027243A1, “AMPHIPHILIC COMPOUNDS FOR ATTENUATING NEUROTOXICITY OF AMYLOID-beta OLIGOMERS AND DIAGNOSTIC METHODS” (THE BOARD OF TRUSTEES OF THE UNIVERSITY OF ILLINOIS, priority 2022, published 2026)
Like-named read-outs stand apart in the source and are kept apart here.

Experiments:
[1] = tested on: brain region of 5×FAD mice vs. WT mice; assay: Real-time in vivo NIR fluorescence imaging; parameters: species or system mouse; conditions: 5 mg/kg
Procedure: DCM-OH-2-DT was chosen as the best candidate for real-time in vivo fluorescence imaging studies. Seven-month-old AD mice and age-matched wild type (WT) mice were injected with the compound at 5 mg/kg. The NIR fluorescence intensities from the brain region were collected and analyzed over time. […] These imaging results further support the potential in vivo application of the developed compounds.
In vivo Imaging Studies. The real-time in vivo fluorescence imaging studies were performed with IVIS imaging system. 7-month-old 5×FAD mice (n=3) and age-matched control B6SJLF1/J mice (n=3) were shaved at the brain region before background imaging. All mice were injected with DCM-OH-2-DT (5 mg/kg, 15% DMSO, 85% PBS) via jugular vein injection. The mice were kept on the imaging stage under anesthesia with 2.5% isoflurane gas in an oxygen flow (1.5 L/min) before the imaging and were woken up after the imaging. Fluorescence signals from the brain were recorded at 5-, 15-, 30-, 60-min after the injection of DCM-OH-2-DT with a filter set (excitation at 470 nm and emission at 740 nm). Imaging data was analyzed by Living Image software, and an ROI was drawn around the brain region. The data were analyzed by subtracting the background fluorescence intensity of each mouse. P values were calculated by Student's t test.

[2] = molecular target: T1, Aβ42 oligomers (Homo sapiens, UniProt P05067); assay: Fluorescence saturation binding assay with Aβ42 oligomers
T1 construct: commercial Aβ42 monomer powder (from GL biochem); purchased GL biochem
T1 sequence (P05067 672-713 limits assumed): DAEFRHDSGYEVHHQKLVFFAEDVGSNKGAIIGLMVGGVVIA
Procedure: Aβ42 oligomers: The 0.5 mg monomeric films were dissolved in 1.1 mL PBS buffer (with final DMSO concentration less than 1%) and incubated at 4° C. overnight. The resulting solution was then centrifuged at 3000 rpm for 15 mins to remove the insoluble aggregates. The clear supernatant was then used for the following experiments. Aβ42 oligomers concentration was checked by measuring the absorbance of the supernatant at 280 nm.
(§1) In Vitro Saturation Binding Studies with Aβ42 Fibrils and Aβ42 Oligomers. To a solution of increasing concentrations of compounds, a fixed concentration of the generated aggregated Aβ42 fibrils or Aβ42 oligomers solutions (5 to 15 NM) was added to yield a total volume of 100 μL. Nonspecific binding was determined […]. The mixture was incubated for 15 min at room temperature. All fluorescence data were obtained on a SpectraMax M2e plate reader (Molecular Devices). The fluorescent intensity was measured at the corresponding emission wavelength of each compound, and the Kd binding curves were generated by GraphPad Prism 8.0 with one site-specific binding model. Equation: Y=Bmax*X/(Kd+X).

[3] = molecular target: T2, Aβ42 fibrils (Homo sapiens, UniProt P05067); assay: Fluorescence saturation binding assay with Aβ42 fibrils
T2 construct: commercial Aβ42 monomer powder (from GL biochem); purchased GL biochem
T2 sequence (P05067 672-713 limits assumed): as above
Procedure: Preparation of the Aβ42 Fibrils and Aβ42 Oligomers. Aβ42 fibrils: 1 mg of commercial Aβ42 monomer powder (from GL biochem) was dissolved in 1 mL 1,1,1,3,3,3-hexafluoro-2-propanol (HFIP) at room temperature and incubated for 1 h. The resulting solution was divided equally into two Eppendorf tubes. The solution in each Eppendorf tube containing 0.5 mg Aβ42 monomer was then evaporated overnight and dried by vacuum centrifuge to generate monomeric films. […] Aβ42 fibrils solution was prepared by dissolving the 0.5 mg monomeric films in 1.1 mL PBS buffer (with final DMSO concentration less than 1%) and stirring at 37° C. for 3 days.
as §1

[4] = Log D by octanol-PBS partition; assay type: physicochemical; conditions: DCM compounds
Procedure: Log D measurements. The Log D value was measured following a published procedure using slight modifications. In general, compounds in 0.5 mL octanol was subjected to partition with 0.5 mL octanol-saturated PBS. The whole mixture was stirred vigorously for 5 min, and centrifuged at 2,000 rpm for 5 min. The top octanol layer was separated for later fluorescence measurement. The remaining PBS layer was partitioned with 0.5 mL PBS-saturated octanol, and the second top octanol layer was then separated after vigorous stirring and centrifuging at 2,000 rpm for another 5 min. The two octanol layers' fluorescence spectra were recorded. The log D value was calculated by the fluorescence intensity ratio at the compounds' emission wavelength for the above two octanol extractions.

[5] = molecular target: T3, Aβ42 fibrils and oligomers (Homo sapiens, UniProt P05067); assay: Fluorescence turn-on with Aβ42 fibrils and oligomers; assay type: binding
T3 construct: commercial Aβ42 monomer powder (from GL biochem); purchased GL biochem
T3 sequence (P05067 672-713 limits assumed): as above
Procedure: Fluorescence Spectral Testing of Compounds with Aps2 Fibrils and Aβ42 Oligomers. The formation of Aβ42 fibrils and oligomers was confirmed by the ThT fluorescence turn-on assay. The fluorescence spectra of ThT in PBS (100 μL PBS, 10.0 μM) were recorded as the baseline. After that, either Aβ42 fibrils or oligomers were added to ThT in PBS. The final volume of the solution mixture should be 100 μL, in which the final concentrations of ThT and Aβ42 species were10. μM and 25 μM, respectively.
For the interactions between Aps and compounds, the fluorescence spectra of the compounds' solution (100 μL PBS, 5.0 μM) were recorded as the baseline without adding various Aβ42 species.
After that, either Aβ42 fibrils or oligomers were added to the compounds' solutions in PBS. The final volume of the solution mixture should be 100 μL, in which the final concentrations of the compound and Aβ42 species were 5. μM and 25 μM, respectively.

[6] = molecular target: T4, native Aβ species in 5×FAD mice brain sections (Homo sapiens, UniProt P05067); assay: Fluorescence staining of 5×FAD mice brain sections, colocalization; parameters: species or system mouse; conditions: 5×FAD brain sections, compared with ThS
T4 construct: from tissue; host or cells: brain sections of 5×FAD transgenic mice
T4 sequence (P05067 672-713 limits assumed): as above
Procedure: Histological Staining of 5×FAD Mice Brain Sections. 5×FAD transgenic mice brain sections were blocked with bovine serum albumin (2% BSA in PBS, pH 7.4, 10 min). Then the mice brain sections were transferred to a PBS solution of the compound and incubated for 1 h. […] Then, the brain sections were treated with BSA again (5 min) followed by washing with PBS (3×2 min), DI water (3×2 min). Finally, the mice brain sections were mounted with non-fluorescent mounting media, and the images were obtained by using EVOS FL Auto 2. ImageJ Fiji program was used for colocalization analysis and determination of the Pearson's correlation coefficient. The primary antibodies were labeled with dye CF594 via Mix-n-Stain™ CF™ 594 Antibody Labeling Kit (Sigma Aldrich).

[7] = tested on: native Aβ aggregates in AD mice brain; assay: BBB permeability: in vivo accumulation after intraperitoneal treatment, brain section colocalization; parameters: species or system mouse; conditions: 12-month-old AD mice, 0.1 mg/Kg, 10 days
Procedure: FIG. 13. In vivo accumulation of DCM-OH-2-DT. Fluorescence microscopy images of brain sections from 12-month-old 5×FAD mice administered with DCM-OH-2-DT for 10 days. The brain sections were stained with Thioflavin S (ThS); [ThS]=5 μM, scale bar=125 μm.
(§2) Fluorescence Imaging of 5×FAD Mouse Brain Sections and blood-brain barrier (BBB) permeability. To confirm the developed compounds can also bind to native Aβ aggregates, we performed fluorescence imaging studies and colocalization experiments on 5×FAD mouse brain sections. […] This further supports that the compounds are selective and can bind to native soluble Aβ oligomers. Before investigating the blood-brain barrier (BBB) permeability of the developed compounds, their neurotoxicity was measured first (FIG. 12). […] DCM-OH-2 leads to less than 80% cell viability even at 2 μM, which is probably due to its poor solubility. Nevertheless, the DCM-OH-2-DT was chosen as the candidate to test the blood-brain barrier (BBB) permeability. 12-month-old AD mice were treated with compound DCM-OH-2-DT (0.1 mg/Kg) for 10 days via intraperitoneal injection. At the end of treatment, mice brains were harvested and colocalization experiments were performed on the mice brain sections.

[8] = tested on: human neuroblastoma cells (SH-SY5Y); assay: Cytotoxicity of DCM compounds in SH-SY5Y cells; assay type: cell-based; conditions: at 2 μM
Description: as §2

time to maximum brain NIR fluorescence signal after injection ([1]; jugular vein injection) | Kd ([2]; Table 3, DCM compounds, read-out: Kd, Oligomers) [nM] | Kd ([3]; Table 3, DCM compounds, read-out: Kd, Fibrils) [nM] | logD [4] | maximum emission wavelength when binding to Aβ aggregates [5] [nm] | Kd ([2]; read-out: Kd value to Aβ42 oligomers) [nM] | Kd ([3]; read-out: Kd value to Aβ42 fibrils) [nM] | SMILES | brain fluorescence signal, AD mice vs WT mice ([1]; 7-month-old mice, 5-, 15-, and 30-min post injection) | region of Aβ aggregates bound [6] | colocalization with ThS after in vivo administration [7] | cell viability [8]
about 15 min | 430 ± 60 | 500 ± 110 | 1.2 ± 0.07 | 730 | – | – | CN1CCN(C)CCN(Cc2cc(/C=C/C=C/C3=CC(=C(C#N)C#N)c4ccccc4O3)cc(CN3CCN(C)CCN(C)CC3)c2O)CC1 [DCM-OH-2-DT, 2-(2-((1E,3E)-4-(3,5-bis((4,7-dimethyl-1,4,7-triazonan-1-yl)methyl)-4-hydroxyphenyl)buta-1,3-dien-1-yl)-4H-chromen-4-ylidene)malononitrile] | significantly higher fluorescence signal in AD mice | bind to the peripheral region of the Aβ aggregates | good colocalization with ThS | –
– | – | – | 0.96 ± 0.07 | – | 120 | 80 | N#CC(C#N)=C1C=C(/C=C/C=C/c2ccc(O)cc2)Oc2ccccc21 [DCM-OH-2] | – | – | – | less than 80%
